Tested on: NHP oocytes (SCC-intact) and rhesus enucleated cytoplasts
Assay: Taxol-induced microtubule recruitment; immunocytochemistry of HSET, NuMA, microtubules and DNA
Format: cell-based, rhesus (nonhuman primate)
Conditions: 10 μM paclitaxel
From the text: FIGS. 9A-9C show microtubule patterns (green) observed in rhesus cytoplast after enucleation (FIG. 9A) or following artificial activation at 24 (FIG. 9B) or at 48 hrs (FIG. 9C) post-ionomycin/DMAP. Following enucleation, no assembled cytoplasmic microtubules (FIG. 9A: green) are observed. After activation, abundant disarrayed microtubules (FIG. 9B: green) assemble in the DNA-less cytoplast. Rarely, a microtubule structure resembling a bipolar spindle (FIG. 9C: green) assembles in the cytoplasm. The insets of FIGS. 9A-9C show DNA imaging confirming successful removal of the SCC. […] Second meiotic chromosomes, are blue. FIGS. 9H-9J show a rhesus enucleated cytoplast treated for 30 minutes with 10 μM paclitaxel prior to fixation and detection of DNA (H, blue), microtubules (I, red), and HSET (J, green). The assembled cytoplasmic microtubule bundles are not labeled by HSET antibody. FIGS. 9A-9C and 9E are double-labeled images for microtubules (green) and DNA (blue). FIGS. 9D, 9F, and 9G are triple-labeled images for HSET (green), microtubules (red) and DNA (blue). FIGS. 9H-9J are single-labeled images for DNA (blue), microtubules (red), and HSET (green). Bars represent 10 μm.
FIGS. 10D and 10E show NuMA detection in the somatic cell nuclei of cumulus (FIG. 10D: green) and rhesus fibroblast cells (FIG. 10E: green; red, microtubules). […] NuMA (green) is strongly detected in the decondensed male pronucleus (MPn), but diminished in the unsuccessful fibroblast cell (arrowhead) attached at the oocyte surface. In the upper inset of FIG. 10F, red depicts microtubules while blue depicts DNA. In the lower inset of FIG. 10F, the sperm centrosome organizes a microtubule astral array (arrow) near the decondensed male pronucleus. […] NuMA (green) is found at both poles on the intact metaphase-II spindle (red) with aligned chromosomes (blue) as well as at the base of the condensed sperm head (blue, arrow). However, NuMA (green) is missing from the disorganized multipolar NT spindle microtubules (red) assembling around the scattered somatic cell chromosomes (blue). […] NuMA (green) is detected at the poles in both the NT spindle (lower arrow; red, microtubules; blue, DNA) and the intact second meiotic metaphase spindle (upper arrow; red, microtubules; blue, DNA). […]
Imaging. […] NuMA, HSET (human spleen embryonic tissue and testis), and Eg5 were detected using rabbit polyclonal antibodies as described in Mountain, 147 J. CELL BIOL. […] Primary antibodies were detected using Alexa secondary antibodies (Alexa-546 goat anti-mouse IgG; Alexa-488 goat anti-rabbit IgG; Molecular Probes, Eugene, Oreg.). […] DNA was fluorescently detected with 10 μg/ml Hoechst 33342 (Sigma) and 1 μM Toto-3 (Molecular Probes) added to the penultimate rinse. […]

With `CC(=O)O[C@H]1C(=O)[C@@]2(C)[C@H]([C@H](OC(=O)c3ccccc3)[C@]3(O)C[C@H](OC(=O)[C@H](O)[C@@H](NC(=O)c4ccccc4)c4ccccc4)C(C)=C1C3(C)C)[C@]1(OC(C)=O)CO[C@@H]1C[C@@H]2O` [Paclitaxel] the NuMA localization (SCC-intact mature NHP oocyte, 20 minutes (FIG. 10C)) was “NuMA localization at disorganized spindle poles”, the cytoplasmic microtubule assembly (enucleated cytoplast lacking the SCC, 30 minutes (FIG. 9I)) was “numerous cytoplasmic microtubule bundles assembled in the cytoplasm” and the “HSET detection at cytoplasmic microtubule bundles” value (enucleated cytoplast lacking the SCC, 30 minutes (FIG. 9J)) was “without HSET protein detection”. For the same compound, the HSET protein localization (intact mature oocyte, 30 minutes (FIG. 9G)) was “enhanced HSET protein only at the second meiotic spindle poles”.
